Results reported in ChEMBL document CHEMBL1135425, “Antitumor agents. 213. Modeling of epipodophyllotoxin derivatives using variable selection k nearest neighbor QSAR method” (J Med Chem, 2002).

Biological target: DNA topoisomerase II (Homo sapiens) (UniProt P11388+Q02880)
Assay: Percentage of intracellular covalent DNA-topoisomerase II complexes formed
Format: cell-based

Complex formation | Compound
180% | COc1ccc(N[C@@H]2c3cc4c(cc3[C@@H](c3cc(OC)c(O)c(OC)c3)[C@H]3C(=O)OC[C@@H]32)OCO4)cc1OC
128% | COc1cc([C@@H]2c3cc4c(cc3[C@@H](NC(=O)c3ccccc3F)[C@H]3COC(=O)[C@H]23)OCO4)cc(OC)c1O
15.6% | COc1cc([C@@H]2c3cc4c(cc3[C@@H](O)[C@H]3COC(=O)[C@H]23)OCO4)c(Cl)c(OC)c1O
179% | COc1cc([C@@H]2c3cc4c(cc3[C@@H](Nc3ccc(Br)cc3)[C@H]3COC(=O)[C@H]23)OCO4)cc(OC)c1O
159% | COc1cc([C@@H]2c3cc4c(cc3[C@@H](NCc3cccc(Cl)c3)[C@H]3COC(=O)[C@H]23)OCO4)cc(OC)c1O
64% | COc1cc([C@@H]2c3cc4c(cc3[C@@H](Nc3ccc(I)cc3)[C@H]3COC(=O)[C@H]23)OCO4)cc(OC)c1O
22% | CCOC(=O)c1ccc(NC2c3cc(O)c(O)cc3[C@@H](c3cc(OC)c(OC)c(OC)c3)[C@H]3C(=O)OC[C@H]23)cc1 (stereo not given in full)
94% | COc1cc([C@@H]2c3cc4c(cc3[C@@H](OC(=O)c3ccccc3)[C@H]3COC(=O)[C@H]23)OCO4)cc(OC)c1O
11% | COc1cc([C@@H]2c3cc4c(cc3[C@@H](Nc3cc(N)ccc3O)[C@H]3COC(=O)[C@H]23)OCO4)cc(OC)c1O
123% | COc1cc([C@@H]2c3cc4c(cc3[C@@H](Nc3cnc5ccccc5c3)[C@H]3COC(=O)[C@H]23)OCO4)cc(OC)c1O
26% | COc1cc([C@@H]2c3cc4c(cc3[C@@H](Nc3ccc(NC(=O)c5cc(NC(=O)c6cc([N+](=O)[O-])cn6C)cn5C)cc3)[C@H]3COC(=O)[C@H]23)OCO4)cc(OC)c1O
6.1% | COc1cc([C@@H]2c3cc4c(cc3[C@@H](O[C@@H]3O[C@@H]5CO[C@@H](C)O[C@H]5[C@H](O)[C@H]3O)[C@H]3COC(=O)[C@H]23)OCO4)c(Cl)c(OC)c1O
144% | COc1cc([C@@H]2c3cc4c(cc3[C@@H](NCc3ccccc3[N+](=O)[O-])[C@H]3COC(=O)[C@H]23)OCO4)cc(OC)c1O
140% | COc1cc([C@@H]2c3cc4c(cc3[C@@H](Nc3ccc(N5CCOCC5)cc3)[C@H]3COC(=O)[C@H]23)OCO4)cc(OC)c1O
109% | COc1cc([C@@H]2c3cc4c(cc3C(Nc3ccc(CC#N)cc3)[C@H]3COC(=O)[C@H]23)OCO4)cc(O)c1O (stereo not given in full)
23% | COc1cc([C@@H]2c3cc(O)c(O)cc3[C@@H](Nc3ccc([N+](=O)[O-])cc3)[C@H]3COC(=O)[C@H]23)cc(OC)c1OC
160% | COc1cc([C@@H]2c3cc4c(cc3[C@@H](NC(=O)c3ccc([N+](=O)[O-])cc3)[C@H]3COC(=O)[C@H]23)OCO4)cc(OC)c1O
41% | COC1=CC([C@@H]2c3cc4c(cc3C(NC(=O)N(C)N=O)[C@H]3COC(=O)[C@H]23)OCO4)=CC(=O)C1=O (stereo not given in full)
290% | COc1cc([C@@H]2c3cc4c(cc3[C@@H](Nc3cccc(O)c3)[C@H]3COC(=O)[C@H]23)OCO4)cc(OC)c1O

Compound | Complex formation
COc1cc([C@@H]2c3cc4c(cc3[C@@H](NCc3ccc(F)cc3)[C@H]3COC(=O)[C@H]23)OCO4)cc(OC)c1O | 169%
COc1cc([N+](=O)[O-])c(OC)cc1N[C@@H]1c2cc3c(cc2[C@@H](c2cc(OC)c(O)c(OC)c2)[C@H]2C(=O)OC[C@@H]21)OCO3 | 4.4%
COc1cc([C@@H]2c3cc4c(cc3[C@@H](Nc3ccccc3Cl)[C@H]3COC(=O)[C@H]23)OCO4)cc(OC)c1O | 32%
COc1cc([C@@H]2c3cc4c(cc3[C@@H](NCc3ccc([N+](=O)[O-])cc3)[C@H]3COC(=O)[C@H]23)OCO4)cc(OC)c1O | 216%
COc1cc([C@@H]2c3cc4c(cc3[C@@H](Nc3cc([N+](=O)[O-])cc([N+](=O)[O-])c3)[C@H]3COC(=O)[C@H]23)OCO4)cc(OC)c1O | 20%
COc1cc([N+](=O)[O-])ccc1N[C@@H]1c2cc3c(cc2[C@@H](c2cc(OC)c(O)c(OC)c2)[C@H]2C(=O)OC[C@@H]21)OCO3 | 83%
